These results are taken from patent publication US11225481B2 (Centre national de la recherche scientifique, priority 2015, dated 2022).

As usually defined, the IC50 is the concentration at which inhibition is half-maximal. Low values mean inhibition by little substance, high ones a need for much substance. Broadly, the Kd is the constant that tells how readily two partners part at equilibrium. Low values mean higher affinity, high ones lower affinity.

SMILES strings stand for the structures.

What all share (format): binding
One assay deals with T1, BRD3(BD1) (Homo sapiens, UniProt Q15059).
T1 construct: purchased BPS Bioscience
Nature of the assay: HTRF bromodomain selectivity profile. The conditions noted are these: Table 3 selectivity profile. The method, then: (§1) Compounds were dispensed, with 200 nL per well (1% final DMSO), from a concentration stock of 1 mM in 100% DMSO and with serial DMSO dilutions, using a Mosquito Crystal pipetting robot platform (TTP labtech). […] All HTRF reagents were purchased from CisBio Bioassays and reconstituted according to the supplier protocols. For each assay 14.7 μL of mix 1 (protein+peptide) is added in the assay wells, containing previously dispensed inhibitors, according to the final concentration and buffer described in Table 4, using a Biomek NX MC pipetting robot (Beckman). Then, 5.1 μL of mix 2 (donnor+acceptor) is added. HTRF signals were measured, after a final incubation (overnight at room temperature), using a PHERAstar FS (BMG Labtech) with an excitation filter at 337 nm and fluorescence wavelength measurement at 620 and 665 nm, an integration delay of 60 μs and an integration time of 500 μs. Results were analyzed with a two-wavelengths signal ratio: […] Percentage of inhibition was calculated using the following equation: % inhibition=[(compound signal)−(min signal)]/[(max signal)−(min signal)]*100, where ‘max signal’ is the signal ratio with the compound vehicle alone (DMSO) and ‘min signal’ the signal ratio without peptide. For IC50 measurements, values were normalized and fitted with Prism (GraphPad software) using the following equation: […] Selectivity profiles of bromodomain inhibitors were performed as described in HTRF screen section. […] HTRF detection reagents (EPIgeneous™ Binding Domain kits) were purchased from Cisbio Bioassays and used according to supplier's protocol. GST tagged bromodomain proteins were purchased from BPS Bioscience and histone peptide from Anaspec. [table]
Background: Time-resolved FRET reads energy transfer from a long-lived donor to a nearby acceptor.

The next assay deals with T2, BRD3(BD2) (Homo sapiens, UniProt Q15059).
T2 construct: purchased BPS Bioscience
In words: HTRF bromodomain selectivity profile. The conditions noted are these: Table 3 selectivity profile. As to the method:
as §1

For the next assay, the target named is T3, BRD2(BD1) (Homo sapiens, UniProt P25440).
T3 construct: purchased BPS Bioscience
Nature of the assay: HTRF bromodomain selectivity profile. The conditions noted are these: Table 3 selectivity profile. The method, then:
(§2) HTRF assays were performed in white 384 Well Small Volume™ HiBase Polystyrene Microplates (Greiner) with a total working volume of 20 μL. Compounds were dispensed, with 200 nL per well (1% final DMSO), from a concentration stock of 1 mM in 100% DMSO and with serial DMSO dilutions, using a Mosquito Crystal pipetting robot platform (TTP labtech). The IC50 measurements were performed in triplicates (Table 2 and 3). All HTRF reagents were purchased from CisBio Bioassays and reconstituted according to the supplier protocols. For each assay 14.7 μL of mix 1 (protein+peptide) is added in the assay wells, containing previously dispensed inhibitors, according to the final concentration and buffer described in Table 4, using a Biomek NX MC pipetting robot (Beckman). Then, 5.1 μL of mix 2 (donnor+acceptor) is added. HTRF signals were measured, after a final incubation (overnight at room temperature), using a PHERAstar FS (BMG Labtech) with an excitation filter at 337 nm and fluorescence wavelength measurement at 620 and 665 nm, an integration delay of 60 μs and an integration time of 500 μs. Results were analyzed with a two-wavelengths signal ratio: [intensity (665 nm)/intensity (620 nm)]*10^4. Percentage of inhibition was calculated using the following equation: % inhibition=[(compound signal)−(min signal)]/[(max signal)−(min signal)]*100, where ‘max signal’ is the signal ratio with the compound vehicle alone (DMSO) and ‘min signal’ the signal ratio without peptide.
(§3) Selectivity profiles of bromodomain inhibitors were performed as described in HTRF screen section. […] HTRF detection reagents (EPIgeneous™ Binding Domain kits) were purchased from Cisbio Bioassays and used according to supplier's protocol. GST tagged bromodomain proteins were purchased from BPS Bioscience and histone peptide from Anaspec.

Another assay deals with T4, BRD2(BD2) (Homo sapiens, UniProt P25440).
T4 construct: purchased BPS Bioscience
In words: HTRF bromodomain selectivity profile. The conditions noted are these: Table 3 selectivity profile. As to the method: as §2, §3

For another assay, the target named is T5, BRD4(BD2) (Homo sapiens, UniProt O60885).
T5 construct: purchased BPS Bioscience
Nature of the assay: HTRF bromodomain selectivity profile. The conditions noted are these: Table 3 selectivity profile. The method, then: as §2, §3

The next assay concerns the target T6, BRDT(BD1) (Homo sapiens, UniProt Q58F21).
T6 construct: purchased BPS Bioscience
In words: HTRF bromodomain selectivity profile. The conditions noted are these: Table 3 selectivity profile. The method, then: as §2, §3

Another assay deals with T7, BRD4(BD1) (Homo sapiens, UniProt O60885).
T7 construct: a BRD4(BD1) synthetic gene that includes a TEV cleavage site was purchased from LifeTechnology; made in house
Nature of the assay: Isothermal Titration Calorimetry. The text has this: For Isothermal Titration Calorimetry (ITC) and crystallogenesis, BRD4(BD1) was produced and purified using a histidine tag affinity chromatography as described by Filipakopoulos et al.9 For these experiments, a pNIC28-BSA4 expression vector containing BRD4(BD1) and a Tobacco Etch Virus (TEV) protease cleavage site have kindly been provided by Stefan Knapp laboratory from the SGC at the University of Oxford. After size exclusion chromatography, the fractions presenting pure BRD4(BD1) after TEV cleavage of the histidine tag were pooled and concentrated to 25 mg/mL for crystallogenesis. For ITC assays, the protein was concentrated up to at 6 mg/mL and the DTT was removed using a buffer exchange column (PD10 from GE healthcare) equilibrated with 10 mM HEPES pH=7.5, 150 mM NaCl. For Homogeneous Time Resolved Fluorimetry (HTRF) experiments, a BRD4(BD1) synthetic gene that includes a TEV cleavage site was purchased from LifeTechnology in a pDONR transport vector before cloning into a pDESTTM15 expression vector for GST affinity purification. Protein production and purification was carried out using similar protocols and buffers as used for the His-BRD4(BD1) system. Purification was carried on GST affinity resin (Thermo Scientific) and reduced glutathione was used for protein release. GST-BRD4(BD1) was further purified by size exclusion chromatography on a Superdex 16/60 Hiload column (GE Healthcare) using 20 mM TRIS pH=8.0, 150 mM NaCl Buffer.
ITC was used to evaluate the thermodynamics parameters of the binding between BRD4(BD1) and the selected compounds, using ITC conditions previously described by Filippakopoulos et al.8 Purified BRD4(BD1) was extensively dialyzed in the ITC buffer containing 10 mM Hepes pH=7.5 and 150 mM NaCl. Compounds were diluted directly in the last protein dialysate prior to experiments. Titrations were carried out on a MicroCal ITC200 microcalorimeter (GE Healthcare, Piscataway, N.J.). Each experiment was designed using a titrant concentration (protein in the syringe) set 10 to 15 times the analyte concentration (compound in the cell generally between 10 and 35 μM) and using 13 injections at 35° C. A first small injection (generally 0.2 μL) was included in the titration protocol in order to remove air bubbles trapped in the syringe prior titration. Raw data were scaled after setting the zero to the titration saturation heat value. Integrated raw ITC data were fitted to a one site non-linear least squares fit model using the MicroCal Origin plugin as implemented in Origin 7 (Origin Lab). Finally, ΔG and TΔS values were calculated from the fitted ΔH and KA values using the equations ΔG=−R.T. ln KA and ΔG=ΔH−TΔS.
(In general: In ITC the heat of successive injections is recorded.)

T4 sequence (P25440 344-453 limits assumed): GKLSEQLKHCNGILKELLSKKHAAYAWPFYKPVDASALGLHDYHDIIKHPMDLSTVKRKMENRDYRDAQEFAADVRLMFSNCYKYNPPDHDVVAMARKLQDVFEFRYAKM
T2 sequence (Q15059 306-415 limits assumed): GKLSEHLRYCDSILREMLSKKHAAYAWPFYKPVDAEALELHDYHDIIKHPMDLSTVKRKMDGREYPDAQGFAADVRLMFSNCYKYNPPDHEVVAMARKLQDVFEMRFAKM
T3 sequence (P25440 74-180 limits assumed): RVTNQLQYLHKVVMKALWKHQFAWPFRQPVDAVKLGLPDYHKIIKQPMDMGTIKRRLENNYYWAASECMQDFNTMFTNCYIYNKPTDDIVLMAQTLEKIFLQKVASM
T1 sequence (Q15059 34-140 limits assumed): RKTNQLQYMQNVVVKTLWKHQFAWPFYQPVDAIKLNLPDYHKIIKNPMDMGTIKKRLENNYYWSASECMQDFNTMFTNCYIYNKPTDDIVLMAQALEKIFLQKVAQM

Consider `CCCCc1c(C)nc2nc(SCc3nc4c(c(=O)[nH]c(=O)n4CCCC)n3CC)nn2c1C` [Compound 26b, 3-Butyl-8-(6-butyl-5,7-dimethyl-[1,2,4]triazolo[1,5-a]pyrimidin-2-ylsulfanylmethyl)-7-ethyl-3,7-dihydro-purine-2,6-dione], for which the IC50 on BRD3(BD1) is 62 ± 7.8 µM; on BRD3(BD2), above 100 µM; against BRD2(BD1), 59 ± 2.9 µM; against BRD2(BD2), above 100 µM; on BRD4(BD2), above 100 µM; on BRDT(BD1) it was above 100 µM. The “IC50 (μM) BRD3(BD2)” value on BRD3(BD2) is “no detectable inhibition”. Also, the “IC50 (μM) BRD2(BD2)” value on BRD2(BD2) is “no detectable inhibition”. Also, the “IC50 (μM) BRD4(BD2)” value on BRD4(BD2) was “no detectable inhibition”. Moreover, the “entropy term −TΔS” value on BRD4(BD1) (ITC, BRD4(BD1)) was -7.1 kcal/mol. The molecule also yielded a dissociation constant Kd on BRD4(BD1) (Isothermal Titration Calorimetry) of 1.4 µM.
